Test results as given in patent publication US9308270B2, “Pharmaceutical composition on the basis of nanomicelles containing epigallocatechin gallate and a method of administration thereof to treat atopic dermatitis, Crohn's disease, adenomyosis, and hyperplastic diseases of the prostate gland” (NORDIC LABS LIMITED, priority 2011, dated 2016).

How the values were obtained:
[1] = Pharmacokinetic study of EGCG in rat plasma after peroral administration; assay type: in vivo; details: for AUC0-24 hr / Cmax: rat plasma
Method: Experiments were conducted on laboratory rats of Sprague-Dawley breed weighing between 250 g and 350 g. All studies on animals were conducted in accordance with “Guidelines for Care and Use of Experimental Animals,” […] At fixed time intervals (10 and 30 minutes, 1, 1.5, 2, 3, 8, and 24 hours), blood samples were drawn from the animals and, following centrifuging, plasma was drawn from the samples for analysis, refrigerated, and kept at −80° C. until it was needed for studies. For analytical studies to be conducted, the plasma samples were unfrozen, centrifuged, and divided into aliquots of 0.1 ml each. The samples were extracted three times in 2 ml of ethyl acetate for 5 minutes at constant shaking. Following extraction, the samples were centrifuged at 1,000 r.p.m. for 10 minutes. The supernatant was separated and placed in a glass tube.

[2] = test system: rats; experiment: Toxicity observed in the rat pharmacokinetic study; assay type: in vivo; details: peroral, maximum dose 2,500 mg/kg (G-1), without formulation
Method: At fixed time intervals (10 and 30 minutes, 1, 1.5, 2, 3, 8, and 24 hours), blood samples were drawn from the animals and, following centrifuging, plasma was drawn from the samples for analysis, refrigerated, and kept at −80° C. until it was needed for studies.

[3] = Dependence of EGCG concentration in rat plasma on dose; assay type: in vivo; details: different doses, FIG. 2
[4] = cited from earlier work

## epigallocatechin-3-gallate [EGCG]
[1]; 500 mg/kg
  AUC0-24 hr: 49.23 ± 4.95 µg·h/mL
  Cmax: 10650 ± 1140 ng/mL
[1]; 2.5 g/kg (G-1)
  AUC0-24 hr: 179.2 ± 54.33 µg·h/mL
  Cmax: 58600 ± 22400 ng/mL
[1]; rat, 100 mg/kg (G-5)
  EGCG concentration level in plasma: below LOQ
[2]
  toxicity: toxic to the animals
[3]
  dependence of EGCG concentration in rat plasma on dose: nonlinear pattern and reached a plateau at the 500 mg/kg dose
[4]; maximum possible tea drinking during the day
  EGCG concentration in human plasma: 326 ng/mL
[4]; patients taking preparations containing green tea catechins
  maximum concentration of EGCG in plasma: ≤ 1 μm
